In patent US20060142312A1, “C6-aryl and heteroaryl substituted pyrido[2,3-D] pyrimidin-7-ones” (PFIZER INC, priority 2004, published 2006):
Counter-ions that a name gives are not always drawn.

System: neointima formation
Details: in rats; cited from earlier work

| SMILES | inhibition of neointima formation |
| --- | --- |
| COc1ccc(CNc2nc(N(CCO)CCO)nc3c2ncn3C(C)C)cc1 [CVT-313] | greater than 80% |

System: not given
Details: not given

| SMILES | melting point |
| --- | --- |
| Cc1cccc(Cc2cc3cnc(Nc4ccc(N5CCNCC5)cc4)nc3n(C3CCCC3)c2=O)c1 [Example 70, 8-Cyclopentyl-6-(3-methyl-benzyl)-2-(4-piperazin-1-yl-phenylamino)-8H-pyrido[2,3-d]pyrimidin-7-one] | 200 to 203 °C |
| CNc1ncc2cc(Cc3ccccc3)c(=O)n(C3CCCC3)c2n1 [Example 47, 6-Benzyl-8-cyclopentyl-2-methylamino-8H-pyrido[2,3-d]pyrimidin-7-one] | 144 to 146 °C |
| CCc1ccc(Cc2cc3cnc(NC4CCC(N(C)C)CC4)nc3n(C3CCCC3)c2=O)cc1 (centres unmarked) [Example 67, 8-Cyclopentyl-2-(4-dimethylamino-cyclohexylamino)-6-(4-ethyl-benzyl)-8H-pyrido[2,3-d]pyrimidin-7-one] | 175 to 181 °C |
| Cc1ccc(Cc2cc3cnc(NCCCN4CCN(C)CC4)nc3n(C3CCCC3)c2=O)cc1 [Example 78, 8-Cyclopentyl-6-(4-methyl-benzyl)-2-[3-(4-methyl-piperazin-1-yl)-propylamino]-8H-pyrido[2,3-d]pyrimidin-7-one] | 123 to 124 °C |
| CN(C)CCCCNc1ncc2cc(Cc3nccs3)c(=O)n(C3CCCC3)c2n1 [Example 90, 8-Cyclopentyl-2-(4-dimethylamino-butylamino)-6-thiazol-2-ylmethyl-8H-pyrido[2,3-d]pyrimidin-7-one] | 122 to 124 °C |
| O=c1c(Cc2ccccc2)cc2cnc(NCc3ccccc3)nc2n1C1CCCC1 [Example 43, 6-Benzyl-2-benzylamino-8-cyclopentyl-8H-pyrido[2,3-d]pyrimidin-7-one] | 186 to 188 °C |
| Cc1cccc(Cc2cc3cnc(NC4CCC(N(C)C)CC4)nc3n(C3CCCC3)c2=O)c1 (centres unmarked) [Example 65, 8-Cyclopentyl-2-(4-dimethylamino-cyclohexylamino)-6-(3-methyl-benzyl)-8H-pyrido[2,3-d]pyrimidin-7-one] | 191 to 194 °C |
| CN(C)C1CCC(Nc2ncc3cc(Cc4nccs4)c(=O)n(C4CCCC4)c3n2)CC1 (centres unmarked) [Example 87, 8-Cyclopentyl-2-(4-dimethylamino-cyclohexylamino)-6-thiazol-2-ylmethyl-8H-pyrido[2,3-d]pyrimidin-7-one] | 154 to 157 °C |
| Cc1ccccc1Cc1cc2cnc(NCCCN3CCOCC3)nc2n(C2CCCC2)c1=O [Example 74, 8-Cyclopentyl-6-(2-methyl-benzyl)-2-(3-morpholin-4-yl-propylamino)-8H-pyrido[2,3-d]pyrimidin-7-one] | 118 to 119 °C |
| Cc1ccccc1Cc1cc2cnc(NCCN3CCOCC3)nc2n(C2CCCC2)c1=O [Example 73, 8-Cyclopentyl-6-(2-methyl-benzyl)-2-(2-morpholin-4-yl-ethylamino)-8H-pyrido[2,3-d]pyrimidin-7-one] | 134 to 137 °C |
| CN(C)C1CCC(Nc2ncc3cc(Cc4ccccc4)c(=O)n(C4CCCC4)c3n2)CC1 (centres unmarked) [Example 40, 6-Benzyl-8-cyclopentyl-2-(4-dimethylamino-cyclohexylamino)-8H-pyrido[2,3-d]pyrimidin-7-one] | 167 to 170 °C |
| Cc1ccc(Cc2cc3cnc(NCCCN4CCOCC4)nc3n(C3CCCC3)c2=O)cc1 [Example 76, 8-Cyclopentyl-6-(4-methyl-benzyl)-2-(3-morpholin-4-yl-propylamino)-8H-pyrido[2,3-d]pyrimidin-7-one] | 114 to 116 °C |
| CN1CCN(S(=O)(=O)N2CCC(Nc3ncc4cc(Cc5ccccc5)c(=O)n(C5CCCC5)c4n3)CC2)CC1 [Example 33, 6-Benzyl-8-cyclopentyl-2-[1-(4-methyl-piperazine-1-sulfonyl)-piperidin-4-ylamino]-8H-pyrido[2,3-d]pyrimidin-7-one] | 182 to 183 °C |
| Cc1c(Cc2ccccc2)c(=O)n(C2CCCC2)c2nc(Nc3ccc(N4CCNCC4)cc3)ncc12 [Example 29, 6-Benzyl-8-cyclopentyl-5-methyl-2-(4-piperazin-1-yl-phenylamino)-8H-pyrido[2,3-d]pyrimidin-7-one] | 114 °C |
| Cc1ccccc1Cc1cc2cnc(NC3CCC(N(C)C)CC3)nc2n(C2CCCC2)c1=O (centres unmarked) [Example 64, 8-Cyclopentyl-2-(4-dimethylamino-cyclohexylamino)-6-(2-methyl-benzyl)-8H-pyrido[2,3-d]pyrimidin-7-one] | 178 to 183 °C |
| O=C(O)CCNc1ncc2cc(Cc3ccccc3)c(=O)n(C3CCCC3)c2n1 [Example 52, 3-(6-Benzyl-8-cyclopentyl-7-oxo-7,8-dihydro-pyrido[2,3-d]pyrimidin-2-ylamino)-propionic acid] | 164 to 170 °C |
| O=c1c(Cc2ccccc2)cc2cnc(NC3CCNCC3)nc2n1C1CCCC1 [Example 46, 6-Benzyl-8-cyclopentyl-2-(piperidin-4-ylamino)-8H-pyrido[2,3-d]pyrimidin-7-one] | 75 °C |
| CC(C)c1ccc(Cc2cc3cnc(Nc4ccc(N5CCNCC5)cc4)nc3n(C3CCCC3)c2=O)cc1 [Example 72, 8-Cyclopentyl-6-(4-isopropyl-benzyl)-2-(4-piperazin-1-yl-phenylamino)-8H-pyrido[2,3-d]pyrimidin-7-one] | 140 to 145 °C |
| CC(C)c1ccc(Cc2cc3cnc(NC4CCC(N(C)C)CC4)nc3n(C3CCCC3)c2=O)cc1 (centres unmarked) [Example 68, 8-Cyclopentyl-2-(4-dimethylamino-cyclohexylamino)-6-(4-isopropyl-benzyl)-8H-pyrido[2,3-d]pyrimidin-7-one] | 174 to 181 °C |
| Cc1c(C(=O)c2ccccc2)c(=O)n(C2CCCC2)c2nc(Nc3ccc(N4CCNCC4)cc3)ncc12 [Example 32, 6-Benzoyl-8-cyclopentyl-5-methyl-2-(4-piperazin-1-yl-phenylamino)-8H-pyrido[2,3-d]pyrimidin-7-one] | 190 °C (dec.) |
| CCc1ccc(Cc2cc3cnc(Nc4ccc(N5CCNCC5)cc4)nc3n(C3CCCC3)c2=O)cc1 [Example 71, 8-Cyclopentyl-6-(4-ethyl-benzyl)-2-(4-piperazin-1-yl-phenylamino)-8H-pyrido[2,3-d]pyrimidin-7-one] | 175 °C |
| O=c1c(Cc2ccccc2)cc2cnc(NCCc3cnc[nH]3)nc2n1C1CCCC1 [Example 51, 6-Benzyl-8-cyclopentyl-2-[2-(3H-imidazol-4-yl)-ethylamino]-8H-pyrido[2,3-d]pyrimidin-7-one] | 163 to 165 °C |
| O=c1c(Cc2ccccc2)cc2cnc(NCCCn3ccnc3)nc2n1C1CCCC1 [Example 50, 6-Benzyl-8-cyclopentyl-2-(3-imidazol-1-yl-propylamino)-8H-pyrido[2,3-d]pyrimidin-7-one] | 142 to 144 °C |

Further lines, results first:

| melting point | SMILES |
| --- | --- |
| 138 to 140 °C | O=c1c(Cc2ccccn2)cc2cnc(NC3CCNCC3)nc2n1C1CCCC1 (as salt: TFA) [Example 26, 8-Cyclopentyl-2-(piperidin-4-ylamino)-6-pyridin-2-ylmethyl-8H-pyrido[2,3-d]pyrimidin-7-one] |
| 149 to 152 °C | CCCN1CCC(Nc2ncc3cc(Cc4nccs4)c(=O)n(C4CCCC4)c3n2)CC1 [Example 86, 8-Cyclopentyl-2-(1-propyl-piperidin-4-ylamino)-6-thiazol-2-ylmethyl-8H-pyrido[2,3-d]pyrimidin-7-one] |
| 149 to 151 °C | CCCN1CCC(Nc2ncc3cc(Cc4ccccc4C)c(=O)n(C4CCCC4)c3n2)CC1 [Example 60, 8-Cyclopentyl-6-(2-methyl-benzyl)-2-(1-propyl-piperidin-4-ylamino)-8H-pyrido[2,3-d]pyrimidin-7-one] |
| 243 to 245 °C | CS(=O)(=O)N1CCC(Nc2ncc3cc(Cc4ccccc4)c(=O)n(C4CCCC4)c3n2)CC1 [Example 54, 6-Benzyl-8-cyclopentyl-2-(1-methanesulfonyl-piperidin-4-ylamino)-8H-pyrido[2,3-d]pyrimidin-7-one] |
| 143 to 145 °C | CCCN1CCC(Nc2ncc3cc(Cc4ccccc4)c(=O)n(C4CCCC4)c3n2)CC1 [Example 45, 6-Benzyl-8-cyclopentyl-2-(1-propyl-piperidin-4-ylamino)-8H-pyrido[2,3-d]pyrimidin-7-one] |
| 154 to 155 °C | CCCN1CCC(Nc2ncc3cc(Cc4ccc(C)cc4)c(=O)n(C4CCCC4)c3n2)CC1 [Example 59, 8-Cyclopentyl-6-(4-methyl-benzyl)-2-(1-propyl-piperidin-4-ylamino)-8H-pyrido[2,3-d]pyrimidin-7-one] |
| 216 to 219 °C | CC(C)S(=O)(=O)N1CCC(Nc2ncc3cc(Cc4ccccn4)c(=O)n(C4CCCC4)c3n2)CC1 [Example 35, 8-Cyclopentyl-2-[1-(propane-2-sulfonyl)-piperidin-4-ylamino]-6-pyridin-2-ylmethyl-8H-pyrido[2,3-d]pyrimidin-7-one] |
| 133 to 134 °C | CCCN1CCC(Nc2ncc3cc(Cc4ccccn4)c(=O)n(C4CCCC4)c3n2)CC1 [Example 88, 8-Cyclopentyl-2-(1-propyl-piperidin-4-ylamino)-6-pyridin-2-ylmethyl-8H-pyrido[2,3-d]pyrimidin-7-one] |
| 128 to 130 °C | O=c1c(Cc2ccccc2)cc2cnc(NC3CCCCC3)nc2n1C1CCCC1 [Example 41, 6-Benzyl-2-cyclohexylamino-8-cyclopentyl-8H-pyrido[2,3-d]pyrimidin-7-one] |
| 220 to 223 °C | CS(=O)(=O)N1CCC(Nc2ncc3cc(Cc4ccccn4)c(=O)n(C4CCCC4)c3n2)CC1 [Example 27, 8-Cyclopentyl-2-(1-methanesulfonyl-piperidin-4-ylamino)-6-pyridin-2-ylmethyl-8H-pyrido[2,3-d]pyrimidin-7-one] |
| 156 to 160 °C | CCCN1CCC(Nc2ncc3cc(Cc4ccc(C(C)C)cc4)c(=O)n(C4CCCC4)c3n2)CC1 [Example 63, 8-Cyclopentyl-6-(4-isopropyl-benzyl)-2-(1-propyl-piperidin-4-ylamino)-8H-pyrido[2,3-d]pyrimidin-7-one] |
